Test system: A. fumigatus CEA10 reference strain
Assay: Fluconazole potentiator screen: MIC by CLSI microbroth dilution with and without fluconazole
Format: cell-based, Aspergillus fumigatus
Details: for MIC: Aspergillus fumigatus, read-out: MIC (ug/mL) (−) Fluc; for MIC / MIC (ug/mL) (+) Fluc: 18 h; for MIC (ug/mL) (+) Fluc: with 32 μg/ml fluconazole, normoxia, GMM, 37 °C; for potency / potentiation of fluconazole (in words): structure-activity statements, fluconazole potentiator screen

Compound	MIC	MIC (ug/mL) (+) Fluc	loss in potentiating the fluconazole (analogs of MBX-7591)	potency / potentiation of fluconazole (in words)	loss in potency compared to MBX-7591 (relative to MBX-7591)
COc1ccc(S(=O)(=O)N2CCC3(CC2)CC(CCOc2ccncc2)CCO3)cc1 (stereo not drawn) [MBX-7953]	5.58 µg/mL	1.11 µg/mL	–	–	–
CN1CCN(c2ccc(CC3CCN(S(=O)(=O)c4ccc(F)cc4)CC3)cc2)CC1 [MBX-8701]	0.67 µg/mL	0.19 µg/mL	–	–	–
O=C(c1cscn1)N1CCC(Cc2ccc(COc3ccncc3)cc2)CC1 [MBX-8099]	7.81 µg/mL	3.10 µg/mL	more than 4 fold	–	–
O=S(=O)(c1cccs1)N1CCC2(CC1)CC(CCN1CCOCC1)CCO2 (stereo not drawn) [MBX-8245]	> 20 µg/mL	>20 µg/mL	–	–	–
CN1CCN(S(=O)(=O)N2CCC3(CC2)CC(CCOc2ccncc2)CCO3)CC1 (stereo not drawn) [MBX-7951]	> 87 µg/mL	>87 µg/mL	–	complete loss of activity	–
O=C(c1cccc(F)c1O)N1CCC(Cc2ccc(COc3ccncc3)cc2)CC1 [MBX-7803]	> 16 µg/mL	>16 µg/mL	–	–	–
O=C(c1ccoc1)N1CCC(Cc2ccc(COc3ccncc3)cc2)CC1 [MBX-7732]	5.32 µg/mL	1.88 µg/mL	–	–	4 fold
c1cc(OCc2ccc(CC3CCN(Cc4ccsc4)CC3)cc2)ccn1 [MBX-7806]	> 15 µg/mL	>15 µg/mL	–	–	–
O=C(c1ccc(Cl)cc1)N1CCC(Cc2ccc(COc3ccncc3)cc2)CC1 [MBX-7705]	1.49 µg/mL	1.05 µg/mL	–	low potentiation effect	–
O=S(=O)(c1cccs1)N1CCC2(CC1)CN(CCOc1ccncc1)CCO2 [MBX-8310]	21 µg/mL	5.20 µg/mL	–	–	–
Cc1ccc(S(=O)(=O)N2CCC3(CC2)CC(CCOc2ccncc2)CCO3)cn1 (stereo not drawn) [MBX-8143]	10.8 µg/mL	3.81 µg/mL	–	–	–
Cn1nccc1S(=O)(=O)N1CCC2(CC1)CC(CCOc1ccncc1)CCO2 (stereo not drawn) [MBX-7914]	8.34 µg/mL	3.31 µg/mL	–	–	–
O=S(=O)(c1ccsc1)N1CCC2(CC1)CC(CCOc1ccncc1)CCO2 (stereo not drawn) [MBX-7876]	> 12 µg/mL	2.99 µg/mL	–	–	–
O=C(c1ccsc1)N1CCC(Cc2ccc(COc3ccc4scnc4c3)cc2)CC1 [MBX-8086]	> 19 µg/mL	>19 µg/mL	–	–	–
COc1cccc(S(=O)(=O)N2CCC3(CC2)CC(CCOc2ccncc2)CCO3)c1 (stereo not drawn) [MBX-7952]	11.2 µg/mL	2.79 µg/mL	–	–	–
O=S(=O)(C1CCC1)N1CCC2(CC1)CC(CCOc1ccncc1)CCO2 (stereo not drawn) [MBX-7915]	39.5 µg/mL	49.70 µg/mL	–	complete loss of activity	–
O=S(=O)(c1cccc(F)c1)N1CCC(C(O)c2ccc(CN3CCOCC3)cc2)CC1 (stereo not drawn) [MBX-8355]	> 22 µg/mL	>22 µg/mL	–	–	–
O=S(=O)(c1cccs1)N1CCC2(CCc3cc(Oc4ccncc4)ccc3O2)CC1 [MBX-8435]	> 22 µg/mL	>22 µg/mL	–	–	–
CC(c1cccs1)N1CCC2(CC1)CC(CCOc1ccncc1)CCO2 (stereo not drawn) [MBX-7954]	> 77 µg/mL	>77 µg/mL	–	–	–
O=C(c1ccc(C(F)(F)F)nc1)N1CCC(Cc2ccc(CN3CCOCC3)cc2)C1 (stereo not drawn) [MBX-8392]	> 43 µg/mL	>43 µg/mL	–	–	–
O=C(c1ccccn1)N1CCC(Cc2ccc(COc3ccncc3)cc2)CC1 [MBX-7729]	15 µg/mL	15.00 µg/mL	–	did not result in appreciable increase in potency	–
O=S(=O)(c1ccc(F)cc1)N1CCC(Cc2ccc(CN3CCOCC3)cc2)C1 (stereo not drawn) [MBX-8390]	2 µg/mL	0.40 µg/mL	–	–	–
O=S(=O)(c1cccc(F)c1)N1CCN(Cc2ccc(CN3CCOCC3)cc2)CC1 [MBX-8189]	> 21 µg/mL	>21 µg/mL	–	–	–
CC1CC(Cc2ccc(CN3CCOCC3)cc2)CCN1S(=O)(=O)c1cccc(F)c1 (stereo not drawn) [MBX-8281]	7.03 µg/mL	1.40 µg/mL	–	–	–
O=S(=O)(c1ccc(C(F)(F)F)nc1)N1CCC(Cc2ccc(CN3CCOCC3)cc2)CC1 [MBX-8186]	4.8 µg/mL	1.90 µg/mL	–	maintain activity in the morpholine series	–

Compound	MIC	MIC (ug/mL) (+) Fluc	loss in potentiating the fluconazole (analogs of MBX-7591)	potency / potentiation of fluconazole (in words)	loss in potency compared to MBX-7591 (relative to MBX-7591)
Cc1cc(CN2CCOCC2)ccc1CC1CCN(S(=O)(=O)c2ccc(F)cc2)CC1 [MBX-8346]	1.1 µg/mL	0.15 µg/mL	–	–	–
O=C(c1csc(Cl)c1)N1CCN(Cc2ccc(CN3CCOCC3)cc2)CC1 [MBX-8249]	> 21 µg/mL	21.00 µg/mL	–	–	–
O=C(c1ccc2c(c1)OCCO2)N1CCC(Cc2ccc(COc3ccncc3)cc2)CC1 [MBX-7772]	12.6 µg/mL	12.60 µg/mL	–	–	–
O=S(=O)(NC1CCC(Cc2ccc(CN3CCOCC3)cc2)CC1)c1ccc(F)cc1 (stereo not drawn) [MBX-8283]	> 22 µg/mL	>22 µg/mL	–	–	–
O=C(c1ccsc1)N1CCC(Oc2ccc(COc3ccncc3)cc2)CC1 [MBX-8309]	19 µg/mL	19.00 µg/mL	–	–	–
O=S(=O)(c1ccc(F)cc1)N1CCC(Cc2ccc(CN3CCn4cncc4C3)cc2)CC1 [MBX-8684]	7.38 µg/mL	1.30 µg/mL	–	–	–
O=C(c1c[nH]cn1)N1CCC(Cc2ccc(COc3ccncc3)cc2)CC1 [MBX-7804]	> 15 µg/mL	>15 µg/mL	–	not tolerated	–
CC(c1ccc(CC2CCN(S(=O)(=O)c3ccc(F)cc3)CC2)cc1)N1CCOCC1 (stereo not drawn) [MBX-8357]	> 22 µg/mL	5.60 µg/mL	–	–	–
O=C(c1ccncc1)N1CCC(Cc2ccc(COc3ccncc3)cc2)CC1 [MBX-7731]	7.7 µg/mL	7.70 µg/mL	–	did not result in appreciable increase in potency	–
O=C(c1ccsc1)N1CCC(Cc2ccc(COc3ccnc(O)c3)cc2)CC1 [MBX-8185]	> 20 µg/mL	>20 µg/mL	–	complete loss of activity	–
O=S(=O)(c1ccc(Cl)s1)N1CCC2(CC1)CC(CCOc1ccncc1)CCO2 (stereo not drawn) [MBX-7912]	0.36 µg/mL	0.18 µg/mL	–	the most potent	–
CC(C)(C)c1ccc(C(=O)N2CCC(Cc3ccc(COc4ccncc4)cc3)CC2)cc1 [MBX-8094]	> 22 µg/mL	>22 µg/mL	–	–	–
COc1ccccc1S(=O)(=O)N1CCC2(CC1)CC(CCOc1ccncc1)CCO2 (stereo not drawn) [MBX-7961]	> 89 µg/mL	>89 µg/mL	–	–	–
O=S(=O)(c1ccc(C(F)(F)F)nc1)N1CCC(Cc2ccc(COc3ccncc3)cc2)C1 (stereo not drawn) [MBX-8393]	> 47 µg/mL	>47 µg/mL	–	–	–
O=S(=O)(c1ccc(F)cc1)C1CCN(Cc2ccc(CN3CCOCC3)cc2)CC1 [MBX-8325]	> 20 µg/mL	>20 µg/mL	–	–	–
CC1CN(Cc2ccc(CC3CCN(S(=O)(=O)c4cccc(F)c4)CC3)cc2)CC(C)O1 (stereo not drawn) [MBX-8190]	> 23 µg/mL	>23 µg/mL	–	not tolerated	–
O=C(c1ccsc1)N1CCC(Cc2ccc(COc3ccncc3)cc2)C1 (stereo not drawn) [MBX-8240]	4.73 µg/mL	2.37 µg/mL	–	–	–
O=C(c1ccsc1)N1CCC(Cc2ccc(-c3ccncc3)cc2)CC1 [MBX-7964]	2.27 µg/mL	1.13 µg/mL	–	maintained potency	–
N#Cc1cccc(S(=O)(=O)N2CCC3(CC2)CC(CCOc2ccncc2)CCO3)c1 (stereo not drawn) [MBX-7910]	> 88 µg/mL	22.00 µg/mL	–	–	–
O=C(c1ccsc1)N1CCC(Cc2ccc(COc3cncnc3)cc2)CC1 [MBX-8033]	39 µg/mL	27.00 µg/mL	–	complete loss of activity	–
O=C(c1ccsc1)N1CC[C@H](Cc2ccc(COc3ccncc3)cc2)C1 [MBX-8432]	4.16 µg/mL	1.51 µg/mL	–	–	–
O=S(=O)(c1ccc(F)cc1)N1CCC(Cc2ccc(CN3CCOCC3)cc2F)CC1 [MBX-8324]	1.2 µg/mL	0.17 µg/mL	–	–	–
O=S(=O)(c1ccc(F)cc1)N1CC2(CC(Cc3ccc(CN4CCOCC4)cc3)C2)C1 [MBX-8345]	> 22 µg/mL	11.00 µg/mL	–	–	–
O=C(c1ccccc1Cl)N1CCC(Cc2ccc(COc3ccncc3)cc2)CC1 [MBX-8091]	> 21 µg/mL	>21 µg/mL	–	–	–
Cc1ccc(S(=O)(=O)N2CCC3(CC2)CC(CCOc2ccncc2)CCO3)s1 (stereo not drawn) [MBX-8144]	0.77 µg/mL	0.21 µg/mL	–	–	–
